# In PubChem BioAssay AID1963447 (Molecular Pharmacology Branch, DTP, NCI, 2024):
# Values joined by “and” are separate entries in the source; they are usually repeats but may differ in a detail not shown here. Equal entries are not always repeated.
# Test system: 885512-296-R-J2-PDC complex spheroid growth, % test/control
# Assay: Anticancer human tumor 885512-296-R-J2-PDC patient-derived breast carcinoma cell line growth inhibition [Asc]
# Conditions: for viability, T/C: stronger effect = lower value
# Summary of the method: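 Complex solid-tumor spheroids incorporating human endothelial and mesenchymal stem cells received single agents or combinations over half-log dilution ranges anchored to clinical Cmax.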
# 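Note: spheroids exposed to compounds for seven days.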
# 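Throughout, for viability, T/C: 100% = DMSO vehicle control wells.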
structure (smiles),measurement,setting,value
NC(=O)C(=Cn1cnc(-c2cc(C(F)(F)F)cc(C(F)(F)F)c2)n1)c1cncnc1 + CNC(C)C(=O)NC1CN(S(=O)(=O)c2cccc(S(=O)(=O)N3CCC4CCC(C(=O)NC(c5ccccc5)c5ccccc5)N4C(=O)C(NC(=O)C(C)NC)C3)c2)CCC2CCC(C(=O)NC(c3ccccc3)c3ccccc3)N2C1=O,IC50,"curve of first compound, second compound 0.01 µM",48.8 nM
same,IC50,"curve of first compound, second compound 0.0316 µM",48.7 nM
same,IC50,"curve of first compound, second compound 0.1 µM",49 nM
same,IC50,"curve of first compound, second compound 0.316 µM",49.9 nM
same,IC50,"curve of first compound, second compound 1 µM",48.9 nM
same,"viability, T/C","second compound 0.01 µM, first compound 0.000949 µM",96.4%
same,"viability, T/C","second compound 0.01 µM, first compound 0.003 µM",95.6%
same,"viability, T/C","second compound 0.01 µM, first compound 0.00949 µM",92.8%
same,"viability, T/C","second compound 0.01 µM, first compound 0.03 µM",80.9%
same,"viability, T/C","second compound 0.01 µM, first compound 0.0949 µM",7.83%
same,"viability, T/C","second compound 0.01 µM, first compound 0.3 µM",1.03%
same,"viability, T/C","second compound 0.0316 µM, first compound 0.000949 µM",96.1%
same,"viability, T/C","second compound 0.0316 µM, first compound 0.003 µM",99%
same,"viability, T/C","second compound 0.0316 µM, first compound 0.00949 µM",102%
same,"viability, T/C","second compound 0.0316 µM, first compound 0.03 µM",80.4%
same,"viability, T/C","second compound 0.0316 µM, first compound 0.0949 µM",8.3%
same,"viability, T/C","second compound 0.0316 µM, first compound 0.3 µM",0.82%
same,"viability, T/C","second compound 0.1 µM, first compound 0.000949 µM",102%
same,"viability, T/C","second compound 0.1 µM, first compound 0.003 µM",103%
same,"viability, T/C","second compound 0.1 µM, first compound 0.00949 µM",110%
same,"viability, T/C","second compound 0.1 µM, first compound 0.03 µM",81.8%
same,"viability, T/C","second compound 0.1 µM, first compound 0.0949 µM",7.31%
same,"viability, T/C","second compound 0.1 µM, first compound 0.3 µM",1.06%
same,"viability, T/C","second compound 0.316 µM, first compound 0.000949 µM",106%
same,"viability, T/C","second compound 0.316 µM, first compound 0.003 µM",110%
same,"viability, T/C","second compound 0.316 µM, first compound 0.00949 µM",107%
same,"viability, T/C","second compound 0.316 µM, first compound 0.03 µM",83.7%
same,"viability, T/C","second compound 0.316 µM, first compound 0.0949 µM",7.6%
same,"viability, T/C","second compound 0.316 µM, first compound 0.3 µM",0.59%
same,"viability, T/C","second compound 1 µM, first compound 0.000949 µM",101%
same,"viability, T/C","second compound 1 µM, first compound 0.003 µM",108%
same,"viability, T/C","second compound 1 µM, first compound 0.00949 µM",110%
same,"viability, T/C","second compound 1 µM, first compound 0.03 µM",81.8%
same,"viability, T/C","second compound 1 µM, first compound 0.0949 µM",6.87%
same,"viability, T/C","second compound 1 µM, first compound 0.3 µM",0.55%
C#Cc1c(F)ccc2cc(O)cc(-c3ncc4c(N5CC6CCC(C5)N6)nc(OCC56CCCN5CC(F)C6)nc4c3F)c12 (configuration not stated) + CCN1C(C(=O)NC23CCC(C(=O)O)(CC2)CC3)C(c2cccc(Cl)c2F)C2(C(=O)Nc3cc(Cl)ccc32)C12CCCCC2,IC50,"curve of first compound, second compound 0.03 µM",> 10000 nM
same,IC50,"curve of first compound, second compound 0.0949 µM",> 10000 nM
same,IC50,"curve of first compound, second compound 0.3 µM",> 10000 nM
same,IC50,"curve of first compound, second compound 0.949 µM",> 10000 nM
same,IC50,"curve of first compound, second compound 3 µM",< 31.6 nM
same,"viability, T/C","second compound 0.03 µM, first compound 0.0316 µM",105%
same,"viability, T/C","second compound 0.03 µM, first compound 0.1 µM",98%
same,"viability, T/C","second compound 0.03 µM, first compound 0.316 µM",107%
same,"viability, T/C","second compound 0.03 µM, first compound 1 µM",82.8%
same,"viability, T/C","second compound 0.03 µM, first compound 3.16 µM",107%
same,"viability, T/C","second compound 0.03 µM, first compound 10 µM",80.3%
same,"viability, T/C","second compound 0.0949 µM, first compound 0.0316 µM",117%
same,"viability, T/C","second compound 0.0949 µM, first compound 0.1 µM",101%
same,"viability, T/C","second compound 0.0949 µM, first compound 0.316 µM",91.4%
same,"viability, T/C","second compound 0.0949 µM, first compound 1 µM",89.1%
same,"viability, T/C","second compound 0.0949 µM, first compound 3.16 µM",95.6%
same,"viability, T/C","second compound 0.0949 µM, first compound 10 µM",83.2%
same,"viability, T/C","second compound 0.3 µM, first compound 0.0316 µM",95.7%
same,"viability, T/C","second compound 0.3 µM, first compound 0.1 µM",86.5%
same,"viability, T/C","second compound 0.3 µM, first compound 0.316 µM",93.3%
same,"viability, T/C","second compound 0.3 µM, first compound 1 µM",82.4%
same,"viability, T/C","second compound 0.3 µM, first compound 3.16 µM",78.3%
same,"viability, T/C","second compound 0.3 µM, first compound 10 µM",88.7%
same,"viability, T/C","second compound 0.949 µM, first compound 0.0316 µM",80.5%
same,"viability, T/C","second compound 0.949 µM, first compound 0.1 µM",59.9%
same,"viability, T/C","second compound 0.949 µM, first compound 0.316 µM",69.1%
same,"viability, T/C","second compound 0.949 µM, first compound 1 µM",64.7%
same,"viability, T/C","second compound 0.949 µM, first compound 3.16 µM",70%
same,"viability, T/C","second compound 0.949 µM, first compound 10 µM",84.7%
same,"viability, T/C","second compound 3 µM, first compound 0.0316 µM",53.7%
same,"viability, T/C","second compound 3 µM, first compound 0.1 µM",42.1%
same,"viability, T/C","second compound 3 µM, first compound 0.316 µM",38%
same,"viability, T/C","second compound 3 µM, first compound 1 µM",43.5%
same,"viability, T/C","second compound 3 µM, first compound 3.16 µM",51.2%
same,"viability, T/C","second compound 3 µM, first compound 10 µM",61.7%
Cn1ncnc1[C@H]1c2n[nH]c(=O)c3cc(F)cc(c23)N[C@@H]1c1ccc(F)cc1,"viability, T/C",compound 0.000316 µM,101% and 86.7% and 96.2%
same,"viability, T/C",compound 0.001 µM,86.5% and 84.3% and 90.5%
same,"viability, T/C",compound 0.00316 µM,71.1% and 82.5% and 93.2%
same,"viability, T/C",compound 0.01 µM,70.2% and 73% and 67.9%
same,"viability, T/C",compound 0.0316 µM,53.5% and 54.3% and 57.9%
same,"viability, T/C",compound 0.1 µM,31.4% and 38.2% and 34.5%
same,IC50,curve of compound,32.3 nM and 43.3 nM and 42.2 nM
